In patent publication US20250205349A1, “ANTI-HUMAN TROP2 ANTIBODY-CAMPTOTHECIN DRUG CONJUGATE AND MEDICAL USE THEREOF” (SYSTIMMUNE, INC., priority 2021, published 2025):
Like-named read-outs stand apart in the source and are kept apart here. Starred links: 1 amine or outer side, 2 acyl side, 3 side chain; linkers in the order of their positions; H or OH if unused. Non-standard residues stand in square brackets, D forms with d. Residues, ends and D or L forms follow the SMILES beside them. *: point of attachment. Exatecan = CC[C@@]1(O)C(=O)OCc2c1cc1n(c2=O)Cc2c-1nc1cc(F)c(C)c3c1c2[C@@H](N*)CC3; X1 = O=C(O)CNC[C@@H](C(=O)*)N1C(=O)C=CC1=O; X2 = C[C@H](OCN[*:1])C(=O)[*:2]

Tests used:
[1] = system: human non-small cell lung cancer cell HCC827; assay: In vitro inhibitory effect of Compound 5A, MTS; assay type: cell-based
Method: (§1) The UV light of the biosafety cabinet was turned on 30 min in advance, and then the ventilation system was enabled for 3 min. The growth medium, the detection medium, D-PBS and trypsin were preheated in a 37° C. constant-temperature water bath, and then had surface disinfected with alcohol and then placed in the biosafety cabinet. The cells with a confluence rate of about 80% were placed in the biosafety cabinet, the old culture medium was removed, the cells were rinsed with D-PBS, and the D-PBS was then discarded. The cells were digested with trypsin for 2-3 min, then neutralized with the growth medium and centrifuged at 1200 rpm for 3 min, and the supernatant was removed. The cell solution was mixed with 4 mL of test medium, and 100 μL of cell solution was taken for counting (where 50 μL of cell solution was well mixed with 50 μL of Trypan Blue Stain and then counted). According to a pre-optimized cell plating density, the cells were plated in a 96-well plate at 80 ul/well. […] After 24 hours of plating, diluted antibodies were added with 20 uL per well and control was set. Only 20 μL of test medium was added to cells in column 11. Two duplicate wells were set at each concentration. The cells were then well mixed on the cell vortex shaker at 550 rpm for 3 min.
(§2) 240 μL of test medium was added to the subsequent columns 2 to 10. 60 μL of the well mixed test solution was taken from the first column and added to the second column, and the cell solution was mixed up and down with a pipette for 10 times, and then the pipette tip was discarded. The same operation was performed for other seven concentrations one by one.
(§3) After 4 days, the MTS reagent was taken out, thawed at room temperature in the dark, and vortex mixed thoroughly. In the biosafety cabinet, 20 μL of CellTiter One Solution Reagen MTS reagent was added per 100 μL cell culture volume along the side wall of each well, and the plate surface was gently tapped to well mix the MTS solution. The cells were incubated for 2 h in the dark in an incubator. After the reaction, the 96-well plate was taken out for testing the OD490 nm absorption on an elisa plate, and the test data were recorded, organized, analyzed and stored.

[2] = system: Human non-small cell lung adenocarcinoma cell H1975; assay: In vitro inhibitory effect of Compound 5A, MTS; assay type: cell-based
Method: as §1, §2, §3

[3] = system: human breast cancer cell ZR-75-1; assay: In vitro inhibitory effect of Compound 5A, MTS; assay type: cell-based
Method: as §1, §2, §3

[4] = system: human gastric cancer cell NCI-N87; assay: In vitro inhibitory effect of Compound 5A, MTS; assay type: cell-based
Method: as §1, §2, §3

[5] = system: human breast cancer cell MDA-MB-361; assay: In vitro inhibitory effect of Compound 5A, MTS; assay type: cell-based
Method: as §1, §2, §3

[6] = system: human multiple myeloma cell RPMI8226; assay: In vitro inhibitory effect of Compound 5A, MTS; assay type: cell-based
Method: as §1, §2, §3

[7] = system: human orthotopic pancreatic adenocarcinoma cell BXPC-3; assay: In vitro inhibitory effect of Compound 5A, MTS; assay type: cell-based
Method: as §1, §2, §3

[8] = system: human epidermal cancer cell A431; assay: In vitro inhibitory effect of Compound 5A, MTS; assay type: cell-based
Method: as §1, §2, §3

[9] = system: human leukemia cell JJN-3; assay: In vitro inhibitory effect of Compound 5A, MTS; assay type: cell-based
Method: as §1, §2, §3

[10] = system: human epidermal cancer cell A431 + human colon cancer cell SW620; assay: In vitro inhibitory effect of Compound 5A, MTS; assay type: cell-based
Method: as §1, §2, §3

[11] = system: human plasma cell leukemia cell H929; assay: In vitro inhibitory effect of Compound 5A, MTS; assay type: cell-based
Method: as §1, §2, §3

[12] = system: human breast cancer cell SK-BR-3; assay: In vitro inhibitory effect of Compound 5A, MTS; assay type: cell-based
Method: as §1, §2, §3

[13] = system: N87; assay: In vitro efficacy of naked antibodies and Compound d3, d38, d39 and d44, MTS; assay type: cell-based; conditions: Homo sapiens, 1 uM starting concentration
Method: (§4) In a 96-well plate, cells were plated at an appropriate cell density. After 24 h, the drugs were added. After 24 h, the drugs were diluted with the test medium (1 uM starting concentration, 5-fold dilution, 9 concentrations, test medium was added in the tenth column as blank control). The diluted drugs were added to the corresponding cell wells and then shaken for 3 min with a microplate shaker (model: MX100-4A) at a shaking speed of 550 rpm/min. After shaking, the cells were incubated in a carbon dioxide incubator for […].
(§5) After 4 days, the MTS reagent was taken out, thawed at room temperature in the dark, and vortex mixed thoroughly. […] The cells were incubated for 2 h in the dark in an incubator. After the reaction, the 96-well plate was taken out for testing the OD490 nm absorption on an elisa plate, and the test data were recorded, organized, analyzed and stored.

[14] = system: SW620 + A431; assay: as above; assay type: cell-based; conditions: Homo sapiens, 1 uM starting concentration
Method: as §4, §5

[15] = system: HCC827; assay: as above; assay type: cell-based; conditions: Homo sapiens, 1 uM starting concentration
Method: as §4, §5

[16] = system: Fadu; assay: as above; assay type: cell-based; conditions: Homo sapiens, 1 uM starting concentration
Method: as §4, §5

[17] = system: SW620; assay: as above; assay type: cell-based; conditions: Homo sapiens, SW-620, 1 uM starting concentration
Method: as §4, §5

[18] = Percentage of monomer of ADCs by SEC-HPLC; assay type: physicochemical
Method: • Chromatography column: Biocore SEC-300 5 μm, 4.6×300 mm; • Manufacturer: NanoChrom, Product code: B213-050030-04630S; • Mobile phase: 50 mM PB+300 mM NaCl+200 mM Arg+5% IPA, pH=6.5;
• Chromatography column: ACQUITY UPLC Protein SEC 4.6×150 mm […] • Manufacturer: waters Product code: 186005225 • Mobile phase: 50 mM PB+300 mM NaCl+200 mM Arg+5% IPA, pH=6.5

[19] = Method: The mixture of an ADC and IgG-depleted plasma were formulated with the final concentration of ADC being 0.6 mg/mL. The plasma mixture was incubated in a water bath box in a 37° C. incubator. The incubation time was set to 0 days, 3 days, and 7 days. At the same time, the unincubated plasma control was set. The incubated sample was purified and extracted and then tested for the DAR to reflect the stability of the ADC in plasma.
[20] = system: human tumor cell line (BxPC-3); assay: In vitro drug efficacy of antibodies and ADCs, MTS cell viability; assay type: cell-based; conditions: BxPC-3, 5 days
Method: In the present invention, a human tumor cell line (BxPC-3) was used as an experimental model to evaluate the in vitro efficacy of ADCs. A certain number of tumor cells were inoculated into a 96-well plate, and gradient dilutions of the test antibody and the corresponding ADC were added to the cells, the cells were treated for 5 days, cell viability was detected by using MTS, and IC50 was calculated to evaluate the in vitro inhibitory effect of the test antibody and ADCs on the tumor cell line. The cells were treated for 5 days with the antibody drugs having initial concentration of 500 nM, diluted 7 folds, with a total of 8 concentration points. Finally, the cell survival was calculated as: survival rate=(experimental group-blank group)/(control group-blank group)×100%. Then, by using Graph Pad Prism, the curve was fitted and the half inhibitory concentration (IC50) was calculated.

[21] = target: T1, recombinant TROP2-His*6 antigen (Homo sapiens, UniProt P09758); assay: Double-antigen sandwich ELISA, relative affinity to TROP2; assay type: binding; conditions: OD450 nm, EC50 compared
T1 construct: His*6
T1 sequence (P09758 27-323): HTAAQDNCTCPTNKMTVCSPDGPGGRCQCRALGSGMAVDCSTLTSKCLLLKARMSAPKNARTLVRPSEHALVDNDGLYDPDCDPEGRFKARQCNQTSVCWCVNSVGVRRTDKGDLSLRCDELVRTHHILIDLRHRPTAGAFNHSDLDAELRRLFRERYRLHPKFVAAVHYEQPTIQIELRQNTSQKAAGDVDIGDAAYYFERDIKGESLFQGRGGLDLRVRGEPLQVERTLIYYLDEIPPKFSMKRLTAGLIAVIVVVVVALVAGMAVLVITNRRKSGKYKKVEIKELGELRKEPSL
Method: The recombinant TROP2-His*6 antigen was coated on the plate and then blocked with 1% bovine serum albumin; hu4D3 and the corresponding ADC and TINA1 and the corresponding ADC were diluted respectively, and then serially diluted 3 folds at a starting concentration of 2000 ng/mL respectively, for a total of 11 concentrations. After the sample was incubated on the coated elisa plate for a period of time, the secondary antibody labeled by goat anti-human Fc-HRP was added for incubation. Finally, TMB color development was performed and terminated by sulfuric acid solution, and the absorption value at 450 nm was detected on an elisa plate. The results are plotted on concentration at OD450 nm.

[22] = humans; cited from earlier work
[23] = in vivo; cited from earlier work
[24] = mice; cited from earlier work

CC[C@@]1(O)C(=O)OCc2c1cc1n(c2=O)Cc2c-1nc1cc(F)c(C)c3c1c2[C@@H](NC(=O)[C@H](C)OCNC(=O)CNC(=O)[C@H](Cc1ccccc1)NC(=O)CNC(=O)CNC(=O)[C@H](CNCC(=O)O)N1C(=O)C=CC1=O)CC3 [Compound 5A] (X1-GGFG[X2]-Exatecan)
Efficacy % ([1]; HCC827): 80.57% | IC50 ([1]; Homo sapiens, 96 h, HCC827, 4 days, MTS): 656 nM | Efficacy % ([2]; H1975): 76.78% | IC50 ([2]; Homo sapiens, NCI-H1975, 96 h, H1975, 4 days, MTS): 970 nM | IC50 ([3]; Homo sapiens, 96 h, ZR-75-1, 4 days, MTS): 558 nM | Efficacy % ([3]; ZR-75-1): 54.79% | IC50 ([4]; Homo sapiens, 96 h, NCI-N87, 4 days, MTS): 1020 nM | Efficacy % ([4]; NCI-N87): 63.93% | IC50 ([5]; Homo sapiens, 96 h, MDA-MB-361, 4 days, MTS): 572 nM | Efficacy % ([5]; MDA-MB-361): 62.34% | IC50 ([6]; Homo sapiens, RPMI-8226, 96 h, RPMI8226, 4 days, MTS): 147 nM | Efficacy % ([6]; RPMI8226): 93.61% | Efficacy % ([7]; BxPC-3): 64.4% | IC50 ([7]; Homo sapiens, 96 h, BxPC-3, 4 days, MTS): 320 nM | Efficacy % ([8]; A431): 84.97% | IC50 ([8]; Homo sapiens, A-431, 96 h, A431, 4 days, MTS): 439 nM | IC50 ([9]; Homo sapiens, 96 h, JJN-3, 4 days, MTS): 36.1 nM | Efficacy % ([9]; JJN-3): 80.59% | Efficacy % ([10]; A431 + SW620): 68.26% | IC50 ([10]; Homo sapiens, 96 h, A431 + SW620, 4 days, MTS): 605 nM | Efficacy % ([11]; H929): 99.03% | IC50 ([11]; Homo sapiens, NCI-H929, 96 h, H929, 4 days, MTS): 23.9 nM | IC50 ([12]; Homo sapiens, 96 h, SK-BR-3, 4 days, MTS): 732 nM | Efficacy % ([12]; SK-BR-3): 70.9%

CC[C@@]1(O)C(=O)OCc2c1cc1n(c2=O)Cc2c-1nc1cc(F)c(C)c3c1c2[C@@H](NC(=O)[C@H](C)O)CC3 [d3]
IC50 [13]: 1.61 nM | IC50 [14]: 2.81 nM | IC50 [15]: 0.778 nM | IC50 [16]: 0.531 nM | IC50 [17]: 0.543 nM

CC[C@@]1(O)C(=O)OCc2c1cc1n(c2=O)Cc2c-1nc1cc(F)c(C)c3c1c2[C@H](NC(=O)[C@@H](O)C1CC1)CC3 [d39]
IC50 [13]: 0.466 nM | IC50 [14]: 0.468 nM | IC50 [15]: 0.092 nM | IC50 [16]: 0.11 nM | IC50 [17]: < 0.005 nM

CC[C@@]1(O)C(=O)OCc2c1cc1n(c2=O)Cc2c-1nc1cc(F)c(C)c3c1c2[C@H](NC(=O)C1(CO)CCC1)CC3 [d44]
IC50 [13]: 0.197 nM | IC50 [14]: 0.182 nM | IC50 [15]: 0.038 nM | IC50 [16]: 0.029 nM | IC50 [17]: 0.014 nM

DS1062a (DAR = 4)
Aggregate % [18]: 3.431% | Degradation % [18]: 0.108% | Monomer % [18]: 96.461% | DAR Incubated in plasma for 0 days ([19]; ADC 0.6 mg/mL in IgG-depleted plasma, 37° C., 0 days): 4.21 | DAR Incubated in plasma for 3 days ([19]; ADC 0.6 mg/mL in IgG-depleted plasma, 37° C., 3 days): 3.75 | DAR Incubated in plasma for 7 days ([19]; ADC 0.6 mg/mL in IgG-depleted plasma, 37° C., 7 days): 3.30 | DAR Unincubated ([19]; unincubated control): 4.13

DS1062a [reference compound]
plasma stability (in words) ([19]; change in DAR during incubation in plasma): poor plasma stability | IC50 [20]: 308 nM | affinity for antigen TROP2 compared with the corresponding antibody [21]: maintains the same affinity

IMMU-132
elimination half-life [22]: about 11 h | mean residence time [23]: about 15.4 h | elimination half-life [24]: about 11 h
